Where “and” joins values, the source holds several entries; their conditions need not be identical. Equal entries are not always repeated. Where two headings read alike, the source gives them in different places.
Legend:
S. typhimurium TA100 = test: Ames microplate test, TA100; assay type: cell-based, Salmonella typhimurium; settings: positive control (PC), 125 µg/mL, +S9;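 further: reference level is the mean solvent-control yellow wells plus SD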
Description: (§1) Bacteria were grown overnight in growth medium.
(§2) Table 9. Ames microplate test results.

S. typhimurium TA98 = test: Ames microplate test, TA98; assay type: cell-based, Salmonella typhimurium; settings: positive control (PC), 0.5 µg/mL, +S9;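 further: reference level is the mean solvent-control yellow wells plus SD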
Description: as §1, §2

tyrosinase from mushroom = test: Inhibition of commercial mushroom tyrosinase (L-DOPA or L-tyrosine substrate); assay type: biochemical
Description: The following substrates were used for the enzymatic reaction: L-tyrosine and L-3,4-dihyroxyphenylalanine (L-DOPA). Both substrates were used in independent experiments. According to the literature, the use of L-DOPA enables the assessment of tyrosinase diphenolase activity, and L-tyrosine - the tyrosinase monophenolase activity. The determinations were performed in 96-well plates, in each well there was placed: 170 µL or 127.5 µL of 50 mM phosphate buffer (pH = 6.8) with tyrosinase (1U/well or 3U/well) and 10 µL of a solution of the tested compound in DMSO (the final concentration in the well was 500 µM, 250 µM or 125 µM). The negative control used 10 µL of pure solvent (DMSO). To initiate the reaction, an appropriate substrate was added: L-tyrosine (62.5 µL of solution in phosphate buffer) or L-DOPA (20 µL of solution in phosphate buffer). After a 25-minute incubation, the absorbance was measured at 475 nm using a microplate reader. The percentage of inhibition of tyrosinase activity was calculated using the formula: [(AC -AT)/AC] × 100, where AC - is the absorbance of the negative control, AT - is the absorbance of the sample containing the tested compound.

[1] = Lipophilicity coefficient RM0 by reversed phase thin layer chromatography; assay type: physicochemical; settings: RP-18 TLC, methanol / 100 mM phosphate buffer pH = 7.4
Description: Confirmation of the identity and purity of the obtained compounds consisted in the registration and interpretation of ^1H NMR and ^13C NMR spectra (the spectra were recorded using an ECZR 500 MHz (JEOL) series FT-NMR spectrophotometer), as well as the registration and interpretation of LC-MS spectra (the spectra were recorded using Acquita UPLC system (Waters) coupled with a Waters TQD mass spectrometer). The melting point was measured using the open capillary method in the IA9300 device (Electrothermal). The lipophilicity coefficient RM0 was determined by reversed phase thin layer chromatography. In the study, aluminum plates 20x20 cm covered with modified silica gel RP-18 F254 (Merck) were used as the solid phase. The mobile phase consisted of solutions of methanol and 100 mM phosphate buffer (pH = 7.4), characterized by a variable methanol content ranging from 95 to 65% (v/v). The tested compounds were dissolved in methanol to obtain solutions with a concentration of 1 mg/mL. Then, 5 µL of the solutions prepared in this way were transferred to the starting line on aluminum plates, which were then placed in chromatographic chambers previously saturated with mobile phase vapors for at least 1 hour. All activities, including the development of chromatograms, were carried out at room temperature. After developing the chromatograms to approximately 1-2 cm from the end of the plate, the plates were dried and then the distance traveled by the tested compounds was visualized under UV light (λ = 254 nm). The experiment was performed in duplicate for the specified conditions. For all samples, Rf was calculated according to the formula Rf = a/b, where a - the distance traveled by the tested compound, b - the distance traveled by the mobile phase. Then, the RM parameter was calculated for all samples according to the formula RM = log(1/Rf - 1), obtaining a linear relationship between the RM values and the methanol concentration in the mobile phase. The logP coefficient was also calculated using the following computer programs: ACD/ChemSketch 2020.1.2 and ChemDraw 20.0.0.41. Table 2. The physicochemical data of the compounds are presented below

[2] = tested on: B16-F10 murine melanoma cell line; test: Cytotoxicity in B16-F10 cells (MTT); assay type: cell-based; settings: 48 h
Description: In order to determine safe doses of compounds for testing the inhibition of melanogenesis in a murine melanoma cell line, cytotoxicity tests were performed. Cytotoxicity was determined by the colorimetric method using MTT ([3-(4,5-dimethyl-2-thiazolyl)-2,5-diphenyl-2H-tetrazolium bromide, Sigma M5655). For this purpose, cells were transferred to 96-well plates in an amount of 5000/well. After 24 h of culture in an incubator in F 10-Ham medium with 1% FBS, the tested compounds at various concentrations were added to the wells together with fresh medium. DMSO was added to the medium in a negative control. The MTT test was performed after further culture for 48 h. Then the medium was removed and the formed formazan crystals were dissolved in DMSO. The absorbance was measured at 570 nm in a plate reader and the result was compared to the control (DMSO), which was 100%. The percentage of viability was calculated using the formula: [AT/AC^∗100], where AT is the absorbance of the test sample, AC - absorbance of the control sample. Table 3. Results of inhibiting the activity of monophenolase […] tyrosinase and cytotoxicity testing in B16F10 cells for the described compounds.

[3] = L-DOPA, read-out: Tyrosinase inhibition with L-DOPA, IC50
[4] = L-tyrosine, read-out: Tyrosinase inhibition with L-tyrosine, IC50

Structure (SMILES)	Tyrosinase inhibition with L-DOPA [%] (tyrosinase from mushroom; L-DOPA)	IC50 (tyrosinase from mushroom; [3]) [µM]	Tyrosinase inhibition with L-tyrosine [%] (tyrosinase from mushroom; L-tyrosine)	IC50 (tyrosinase from mushroom; [4]) [µM]	RM0 [1]	Tyrosinase inhibition with L-DOPA [%] (tyrosinase from mushroom; L-DOPA, concentration not given)	Increase in the number of yellow wells compared to the reference level (S. typhimurium TA100)	Increase in the number of yellow wells compared to the reference level (S. typhimurium TA98)	Cytotoxicity study in B16F10 cells % viability ([2]; 150 µM) [%]	Cytotoxicity study in B16F10 cells % viability ([2]; 200 µM) [%]	Cytotoxicity study in B16F10 cells % viability ([2]; 250 µM) [%]	Cytotoxicity study in B16F10 cells % viability ([2]; 12.5 µM) [%]	Cytotoxicity study in B16F10 cells % viability ([2]; 25 µM) [%]	Cytotoxicity study in B16F10 cells % viability ([2]; 50 µM) [%]
Nc1ccc2cc3ccccc3cc2c1 [Compound 2-AA, 2-aminoanthracene, reference compound]	–	–	–	–	–	–	4.00	24.00 and 15.03	–	–	–	–	–	–
CCC(CO)NC(=O)/C=C/c1ccc(Cl)cc1Cl (stereo not drawn) [H-285/20, (2E)-3-(2,4-dichlorophenyl)-N-(1-hydroxybutan-2-yl)prop-2-enamide]	0.21±5.64% (500 µM)	–	14.56±1.63% (500 µM)	–	3.08	–	–	–	84.2	74.8	24.6	–	–	–
O=C(/C=C/c1ccc(Cl)cc1Cl)NCCCO [H-296/20, (2E)-3-(2,4-dichlorophenyl)-N-(3-hydroxypropyl)prop-2-enamide]	18.63±1.67% (500 µM)	–	17.87±7.36% (500 µM)	–	2.11	–	–	–	67.0	57.0	38.3	–	–	–
O=C(/C=C/c1ccc(Cl)cc1Cl)NCCCCCO [H-297/20, (2E)-3-(2,4-dichlorophenyl)-N-(5-hydroxypentyl)prop-2-enamide]	20.53±2.84% (500 µM)	–	19.09±2.53% (500 µM)	–	3.08	–	–	–	102.3	73.6	88.5	–	–	–
O=C(/C=C/c1ccc(Cl)cc1Cl)NCCCCO [H-298/20, (2E)-3-(2,4-dichlorophenyl)-N-(4-hydroxybutyl)prop-2-enamide]	11.16±2.78 (500 µM) %	–	20±2.96% (500 µM)	–	2.78	–	–	–	46.5	40.6	37.4	–	–	–
O=C(/C=C/c1ccc(Cl)cc1Cl)N1CCC(O)CC1 [H-310/20, (2E)-3-(2,4-dichlorophenyl)-1-(4-hydroxypiperidin-1-yl)prop-2-en-1-one]	7.23±0.81% (500 µM)	–	19.24±3.44% (500 µM)	–	2.80	–	–	–	89.5	100.4	93.0	–	–	–
CCC(O)CNC(=O)/C=C/c1ccc(Cl)cc1Cl (stereo not drawn) [H-320/21, (2E)-3-(2,4-dichlorophenyl)-N-(2-hydroxybutyl)prop-2-enamide]	5.8±3.04% (500 µM)	–	24.43±8.05% (500 µM)	–	3.08	–	–	–	101.7	90.8	33.9	–	–	–
O=C(/C=C/c1ccc(Cl)cc1)NCCCCO [H-331/21, (2E)-3-(4-chlorophenyl)-N-(4-hydroxybutyl)prop-2-enamide]	64.31±0.21% (500 µM)	153	82.50±0.87% (500 µM)	103	2.14	–	–	–	32.7	51.9	52.7	49.0	47.8	54.2
CCC(CO)NC(=O)/C=C/c1ccc(C)cc1 (stereo not drawn) [H-409/21, (2E)-N-(1-hydroxybutan-2-yl)-3-(4-methylphenyl)prop-2-enamide]	21.81±2.31% (500 µM)	–	15.31±8.27% (500 µM)	–	2.49	–	–	–	83.2	95.3	103.4	–	–	–

Second part, led by results:

Tyrosinase inhibition with L-DOPA [%] (tyrosinase from mushroom; L-DOPA)	IC50 (tyrosinase from mushroom; [3]) [µM]	Tyrosinase inhibition with L-tyrosine [%] (tyrosinase from mushroom; L-tyrosine)	IC50 (tyrosinase from mushroom; [4]) [µM]	RM0 [1]	Tyrosinase inhibition with L-DOPA [%] (tyrosinase from mushroom; L-DOPA, concentration not given)	Structure (SMILES)	Increase in the number of yellow wells compared to the reference level (S. typhimurium TA100)	Increase in the number of yellow wells compared to the reference level (S. typhimurium TA98)	Cytotoxicity study in B16F10 cells % viability ([2]; 150 µM) [%]	Cytotoxicity study in B16F10 cells % viability ([2]; 200 µM) [%]	Cytotoxicity study in B16F10 cells % viability ([2]; 250 µM) [%]	Cytotoxicity study in B16F10 cells % viability ([2]; 12.5 µM) [%]	Cytotoxicity study in B16F10 cells % viability ([2]; 25 µM) [%]	Cytotoxicity study in B16F10 cells % viability ([2]; 50 µM) [%]
43.99±2.60% (500 µM)	734	61.80±0.40% (500 µM)	284	2.43	–	CCC(CO)NC(=O)/C=C/c1ccc(Cl)cc1 (stereo not drawn) [Compound A-01, (2E)-3-(4-chlorophenyl)-N-(1-hydroxybutan-2-yl)prop-2-enamide]	–	–	73.6	93.2	85.4	–	–	–
34.55±4.18% (500 µM)	1560	35.50±1.37% (500 µM)	1030	1.60	–	O=C(/C=C/c1ccccc1)NCCCCO [Compound A-43, (2E)-N-(4-hydroxybutyl)-3-phenylprop-2-enamide]	–	–	108.9	105.7	103.2	–	–	–
21.19±1.26% (500 µM)	–	30.22±10.22% (500 µM)	–	2.39	–	CCC(O)CNC(=O)/C=C/c1ccc(C)cc1 (stereo not drawn) [Compound A-63, (2E)-N-(2-hydroxybutyl)-3-(4-methylphenyl)prop-2-enamide]	–	–	90.2	87.3	87.4	–	–	–
22.96±6.64% (500 µM)	–	4.40±7.15% (500 µM)	–	2.17	–	Cc1ccc(/C=C/C(=O)NC(C)CO)cc1 (stereo not drawn) [Compound A-69, (2E)-N-(1-hydroxypropan-2-yl)-3-(4-methylphenyl)prop-2-enamide]	–	–	96.6	101.3	97.5	–	–	–
–	450	75.14±1.60% (500 µM)	177	2.27	54.87±1.47	O=C(/C=C/c1ccc(Cl)cc1)N1CCC(O)CC1 [Compound A-99, (2E)-3-(4-chlorophenyl)-1-(4-hydroxypiperidin-1-yl)prop-2-en-1-one]	–	–	109.8	102.6	96.6	–	–	–
41.17±0.81% (500 µM)	906	57.62±2.11% (500 µM)	405	2.76	–	CC(C)C(CO)NC(=O)/C=C/c1ccc(Cl)cc1 (stereo not drawn) [Compound A-106, (2E)-3-(4-chlorophenyl)-N-(1-hydroxy-3-methylbutan-2-yl)prop-2-enamide]	–	–	85.9	88.1	72.6	–	–	–
